Data: ChEMBL document CHEMBL4507319 (2021)

Columns and labels:
[1] = target: Serine/threonine-protein kinase B-raf (Homo sapiens) (UniProt P15056); assay: B-Raf(h) Eurofins kinase panel; details: Compound concentration 1.0 uM
[2] = target: Casein kinase I isoform delta (Homo sapiens) (UniProt P48730); assay: CK1delta(h) Eurofins kinase panel; details: Compound concentration 1.0 uM
Homo sapiens = organism: Homo sapiens; assay: CK2(h) Eurofins kinase panel; details: Compound concentration 1.0 uM
[3] = target: Eukaryotic elongation factor 2 kinase (Homo sapiens) (UniProt O00418); assay: eEF-2K(h) Eurofins kinase panel; details: Compound concentration 1.0 uM
Eukaryotic elongation factor 2 kinase (Homo sapiens), sequence (O00418 whole entry): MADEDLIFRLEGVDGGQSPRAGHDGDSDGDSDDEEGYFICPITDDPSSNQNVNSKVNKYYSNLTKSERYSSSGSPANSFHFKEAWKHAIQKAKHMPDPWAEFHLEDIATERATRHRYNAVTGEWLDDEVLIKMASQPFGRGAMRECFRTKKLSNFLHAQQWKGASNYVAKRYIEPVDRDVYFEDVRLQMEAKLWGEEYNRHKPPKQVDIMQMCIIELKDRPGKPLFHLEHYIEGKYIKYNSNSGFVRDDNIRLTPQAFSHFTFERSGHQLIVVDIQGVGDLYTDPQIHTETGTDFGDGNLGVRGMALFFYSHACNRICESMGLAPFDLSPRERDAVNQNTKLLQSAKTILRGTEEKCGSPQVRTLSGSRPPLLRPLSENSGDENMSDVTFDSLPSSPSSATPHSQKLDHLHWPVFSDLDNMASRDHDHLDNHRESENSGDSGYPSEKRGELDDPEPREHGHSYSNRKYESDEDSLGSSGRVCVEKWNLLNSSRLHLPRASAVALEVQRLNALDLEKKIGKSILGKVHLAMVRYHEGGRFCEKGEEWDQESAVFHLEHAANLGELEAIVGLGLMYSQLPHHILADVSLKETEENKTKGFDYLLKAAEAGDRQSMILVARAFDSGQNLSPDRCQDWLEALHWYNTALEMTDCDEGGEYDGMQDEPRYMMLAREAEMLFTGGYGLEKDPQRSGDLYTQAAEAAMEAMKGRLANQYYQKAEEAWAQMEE

[4] = target: Vascular endothelial growth factor receptor 2 (Homo sapiens) (UniProt P35968); assay: KDR(h) Eurofins kinase panel; details: Compound concentration 1.0 uM
Vascular endothelial growth factor receptor 2 (Homo sapiens), sequence (P35968 whole entry, the tested form may be a part): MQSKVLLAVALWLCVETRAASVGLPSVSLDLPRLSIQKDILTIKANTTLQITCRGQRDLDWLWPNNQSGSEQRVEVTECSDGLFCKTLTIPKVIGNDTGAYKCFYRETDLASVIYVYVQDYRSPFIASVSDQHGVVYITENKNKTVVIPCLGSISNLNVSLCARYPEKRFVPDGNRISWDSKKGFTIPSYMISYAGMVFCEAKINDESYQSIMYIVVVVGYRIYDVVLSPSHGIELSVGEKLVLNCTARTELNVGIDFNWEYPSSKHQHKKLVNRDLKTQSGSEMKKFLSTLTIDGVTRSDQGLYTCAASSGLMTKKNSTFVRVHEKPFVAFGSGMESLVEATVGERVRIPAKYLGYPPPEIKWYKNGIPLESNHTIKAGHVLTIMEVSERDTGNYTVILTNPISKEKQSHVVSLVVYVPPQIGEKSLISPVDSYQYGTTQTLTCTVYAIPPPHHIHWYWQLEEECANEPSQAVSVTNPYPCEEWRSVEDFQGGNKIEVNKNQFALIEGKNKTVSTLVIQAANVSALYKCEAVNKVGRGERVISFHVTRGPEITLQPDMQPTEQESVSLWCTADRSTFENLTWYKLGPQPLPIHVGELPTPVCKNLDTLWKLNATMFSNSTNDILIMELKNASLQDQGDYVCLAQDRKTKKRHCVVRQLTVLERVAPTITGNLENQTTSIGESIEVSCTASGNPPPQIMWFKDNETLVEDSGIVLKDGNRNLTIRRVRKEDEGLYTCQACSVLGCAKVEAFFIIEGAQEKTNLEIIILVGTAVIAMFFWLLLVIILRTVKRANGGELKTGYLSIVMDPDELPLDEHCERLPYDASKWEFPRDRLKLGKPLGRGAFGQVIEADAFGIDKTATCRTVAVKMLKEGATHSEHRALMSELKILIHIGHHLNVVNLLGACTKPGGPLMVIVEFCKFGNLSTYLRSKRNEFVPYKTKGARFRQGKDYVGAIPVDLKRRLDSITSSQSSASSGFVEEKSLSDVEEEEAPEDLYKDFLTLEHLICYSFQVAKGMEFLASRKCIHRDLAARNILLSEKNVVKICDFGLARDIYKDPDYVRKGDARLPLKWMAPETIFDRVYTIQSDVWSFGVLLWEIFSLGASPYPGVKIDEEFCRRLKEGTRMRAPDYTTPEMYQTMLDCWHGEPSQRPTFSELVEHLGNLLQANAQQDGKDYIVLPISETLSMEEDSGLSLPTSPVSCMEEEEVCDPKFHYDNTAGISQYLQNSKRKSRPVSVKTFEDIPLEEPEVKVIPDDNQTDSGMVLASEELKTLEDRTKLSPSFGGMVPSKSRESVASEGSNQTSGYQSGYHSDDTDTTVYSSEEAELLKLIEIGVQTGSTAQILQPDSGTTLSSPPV

[5] = target: LIM domain kinase 1 (Homo sapiens) (UniProt P53667); assay: LIMK1(h) Eurofins kinase panel; details: Compound concentration 1.0 uM
LIM domain kinase 1 (Homo sapiens), sequence (P53667 whole entry, looked up, the tested form may be a part): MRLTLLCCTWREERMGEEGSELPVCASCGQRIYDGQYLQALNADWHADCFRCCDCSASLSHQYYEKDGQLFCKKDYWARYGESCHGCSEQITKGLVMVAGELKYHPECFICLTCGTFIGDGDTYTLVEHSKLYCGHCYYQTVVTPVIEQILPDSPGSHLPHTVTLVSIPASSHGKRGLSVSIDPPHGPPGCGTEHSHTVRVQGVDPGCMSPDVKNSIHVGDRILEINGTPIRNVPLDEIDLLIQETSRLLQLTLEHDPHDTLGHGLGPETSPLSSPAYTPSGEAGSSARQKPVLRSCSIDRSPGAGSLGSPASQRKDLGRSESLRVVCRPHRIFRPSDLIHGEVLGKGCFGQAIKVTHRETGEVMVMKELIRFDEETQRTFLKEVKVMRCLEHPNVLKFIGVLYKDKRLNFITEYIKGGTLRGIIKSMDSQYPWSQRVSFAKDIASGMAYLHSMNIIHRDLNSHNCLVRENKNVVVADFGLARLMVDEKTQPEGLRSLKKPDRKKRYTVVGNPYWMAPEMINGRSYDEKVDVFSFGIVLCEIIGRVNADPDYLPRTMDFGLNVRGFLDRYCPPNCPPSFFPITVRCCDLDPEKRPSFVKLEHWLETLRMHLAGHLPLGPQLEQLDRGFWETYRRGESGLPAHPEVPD

[6] = target: Serine/threonine-protein kinase MRCK beta (Homo sapiens) (UniProt Q9Y5S2); assay: MRCKbeta(h) Eurofins kinase panel; details: Compound concentration 1.0 uM
[7] = target: Ribosomal protein S6 kinase alpha-6 (Homo sapiens) (UniProt Q9UK32); assay: Rsk4(h) Eurofins kinase panel; details: Compound concentration 1.0 uM
Ribosomal protein S6 kinase alpha-6 (Homo sapiens), sequence (Q9UK32 whole entry): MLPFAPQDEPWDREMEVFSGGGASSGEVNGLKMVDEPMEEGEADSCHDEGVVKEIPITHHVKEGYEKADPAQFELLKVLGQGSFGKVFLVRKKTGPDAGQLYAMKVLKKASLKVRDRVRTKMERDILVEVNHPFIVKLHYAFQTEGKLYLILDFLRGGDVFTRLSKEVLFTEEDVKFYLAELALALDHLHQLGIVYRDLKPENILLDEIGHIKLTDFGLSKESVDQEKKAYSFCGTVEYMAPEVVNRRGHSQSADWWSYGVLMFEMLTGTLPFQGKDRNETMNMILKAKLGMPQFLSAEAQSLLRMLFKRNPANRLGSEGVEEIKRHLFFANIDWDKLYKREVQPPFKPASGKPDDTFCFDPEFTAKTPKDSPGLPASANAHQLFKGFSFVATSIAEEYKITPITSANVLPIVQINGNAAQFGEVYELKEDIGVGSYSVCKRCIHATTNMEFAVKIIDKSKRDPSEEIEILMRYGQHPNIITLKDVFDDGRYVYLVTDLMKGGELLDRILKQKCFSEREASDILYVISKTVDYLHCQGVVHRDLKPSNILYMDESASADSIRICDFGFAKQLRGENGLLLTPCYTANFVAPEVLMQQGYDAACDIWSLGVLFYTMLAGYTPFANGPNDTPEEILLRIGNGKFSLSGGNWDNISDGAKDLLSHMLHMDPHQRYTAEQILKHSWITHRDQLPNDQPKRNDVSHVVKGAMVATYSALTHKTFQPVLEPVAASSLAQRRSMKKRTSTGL

[8] = target: T1, Serine/threonine-protein kinase Sgk3 (Homo sapiens) (UniProt Q96BR1); assay: SGK3(h) Eurofins kinase panel; details: Compound concentration 1.0 uM
T1 sequence (whole entry): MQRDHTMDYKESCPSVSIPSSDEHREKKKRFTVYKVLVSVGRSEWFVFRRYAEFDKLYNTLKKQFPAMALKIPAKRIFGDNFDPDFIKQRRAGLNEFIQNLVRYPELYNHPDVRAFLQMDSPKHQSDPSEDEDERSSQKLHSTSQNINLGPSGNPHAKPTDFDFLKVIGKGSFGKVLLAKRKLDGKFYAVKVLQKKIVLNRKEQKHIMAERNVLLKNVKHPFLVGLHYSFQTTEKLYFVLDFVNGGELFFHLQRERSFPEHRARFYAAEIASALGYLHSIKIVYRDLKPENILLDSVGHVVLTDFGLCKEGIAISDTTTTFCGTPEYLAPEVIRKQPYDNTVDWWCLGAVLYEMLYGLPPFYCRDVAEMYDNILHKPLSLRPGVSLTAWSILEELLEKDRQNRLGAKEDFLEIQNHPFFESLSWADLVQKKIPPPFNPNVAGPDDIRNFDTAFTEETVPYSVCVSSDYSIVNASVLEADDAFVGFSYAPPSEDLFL

[9] = target: Serine/threonine-protein kinase SIK1 (Homo sapiens) (UniProt P57059); assay: SIK(h) Eurofins kinase panel; details: Compound concentration 1.0 uM
Serine/threonine-protein kinase SIK1 (Homo sapiens), sequence (P57059 whole entry): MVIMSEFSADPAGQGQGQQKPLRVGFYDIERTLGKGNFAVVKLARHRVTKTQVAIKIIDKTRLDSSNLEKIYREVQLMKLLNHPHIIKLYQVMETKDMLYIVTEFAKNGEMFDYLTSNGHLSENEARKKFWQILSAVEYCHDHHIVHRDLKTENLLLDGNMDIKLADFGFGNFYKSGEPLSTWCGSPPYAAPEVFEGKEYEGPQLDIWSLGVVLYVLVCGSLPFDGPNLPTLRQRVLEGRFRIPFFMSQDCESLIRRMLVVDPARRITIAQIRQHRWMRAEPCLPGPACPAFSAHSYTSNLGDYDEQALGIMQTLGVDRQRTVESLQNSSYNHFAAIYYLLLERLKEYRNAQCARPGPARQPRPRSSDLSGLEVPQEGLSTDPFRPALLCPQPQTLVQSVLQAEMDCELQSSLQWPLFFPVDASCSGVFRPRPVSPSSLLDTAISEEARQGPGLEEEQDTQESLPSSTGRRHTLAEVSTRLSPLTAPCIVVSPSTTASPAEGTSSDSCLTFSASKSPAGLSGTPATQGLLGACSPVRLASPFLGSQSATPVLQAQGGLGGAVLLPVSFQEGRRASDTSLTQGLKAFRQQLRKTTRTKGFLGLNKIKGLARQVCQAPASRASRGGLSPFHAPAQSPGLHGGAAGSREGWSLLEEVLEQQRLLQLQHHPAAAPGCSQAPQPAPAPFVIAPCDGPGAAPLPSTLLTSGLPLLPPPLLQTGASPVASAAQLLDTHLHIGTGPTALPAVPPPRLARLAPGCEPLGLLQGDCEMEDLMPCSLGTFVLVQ

[10] = target: Death-associated protein kinase 3 (Homo sapiens) (UniProt O43293); assay: ZIPK(h) Eurofins kinase panel; details: Compound concentration 1.0 uM
[11] = target: T2, Phosphatidylinositol 3-kinase C2 domain-containing subunit gamma (Homo sapiens) (UniProt O75747); assay: PI3KC2g(h) Eurofins kinase panel; details: Compound concentration 1.0 uM
T2 sequence (whole entry): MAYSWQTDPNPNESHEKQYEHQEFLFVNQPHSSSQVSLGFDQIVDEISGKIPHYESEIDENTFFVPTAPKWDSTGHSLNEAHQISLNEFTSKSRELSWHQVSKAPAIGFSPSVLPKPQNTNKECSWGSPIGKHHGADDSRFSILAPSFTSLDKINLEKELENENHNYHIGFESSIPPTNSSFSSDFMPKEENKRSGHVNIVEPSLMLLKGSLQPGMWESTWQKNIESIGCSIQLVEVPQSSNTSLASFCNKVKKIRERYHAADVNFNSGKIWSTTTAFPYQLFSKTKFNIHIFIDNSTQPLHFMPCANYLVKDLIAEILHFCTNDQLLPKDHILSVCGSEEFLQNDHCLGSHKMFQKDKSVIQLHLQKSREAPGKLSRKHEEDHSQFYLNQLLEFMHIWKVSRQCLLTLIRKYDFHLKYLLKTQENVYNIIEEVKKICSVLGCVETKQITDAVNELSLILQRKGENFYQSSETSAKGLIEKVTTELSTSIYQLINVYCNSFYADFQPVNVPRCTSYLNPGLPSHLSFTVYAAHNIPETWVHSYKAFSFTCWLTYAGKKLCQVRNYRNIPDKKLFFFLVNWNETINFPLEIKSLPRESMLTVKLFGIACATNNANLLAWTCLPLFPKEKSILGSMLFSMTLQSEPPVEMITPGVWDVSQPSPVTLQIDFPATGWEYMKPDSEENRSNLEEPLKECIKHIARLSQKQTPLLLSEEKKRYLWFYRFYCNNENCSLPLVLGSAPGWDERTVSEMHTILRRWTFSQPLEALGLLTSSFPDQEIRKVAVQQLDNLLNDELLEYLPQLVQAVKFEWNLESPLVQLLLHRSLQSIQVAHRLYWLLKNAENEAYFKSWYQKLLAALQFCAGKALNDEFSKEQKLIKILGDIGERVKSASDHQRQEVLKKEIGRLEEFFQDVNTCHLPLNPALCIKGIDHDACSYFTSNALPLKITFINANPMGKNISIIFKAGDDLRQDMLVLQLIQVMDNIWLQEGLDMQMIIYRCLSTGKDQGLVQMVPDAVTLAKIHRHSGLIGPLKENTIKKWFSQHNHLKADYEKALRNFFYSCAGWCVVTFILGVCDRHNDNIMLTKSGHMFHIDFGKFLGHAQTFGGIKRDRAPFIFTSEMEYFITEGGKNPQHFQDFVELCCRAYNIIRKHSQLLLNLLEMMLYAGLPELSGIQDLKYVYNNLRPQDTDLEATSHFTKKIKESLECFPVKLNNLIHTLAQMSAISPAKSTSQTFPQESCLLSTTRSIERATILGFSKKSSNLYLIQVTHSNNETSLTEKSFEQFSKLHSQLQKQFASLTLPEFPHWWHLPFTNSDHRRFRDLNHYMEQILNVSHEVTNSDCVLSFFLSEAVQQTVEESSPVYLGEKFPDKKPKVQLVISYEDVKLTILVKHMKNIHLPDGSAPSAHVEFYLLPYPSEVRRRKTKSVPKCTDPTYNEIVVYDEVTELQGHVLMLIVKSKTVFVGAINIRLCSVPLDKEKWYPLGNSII

U2OS = assay: U2-OS cell line Proliferation assay; type: functional, Homo sapiens; details: time 3 day
VCaP = assay: VCaP cell line Proliferation assay; type: functional, Homo sapiens; details: time 6 day

Serine/threonine-protein kinase B-raf (Homo sapiens), sequence (P15056 whole entry, canonical isoform): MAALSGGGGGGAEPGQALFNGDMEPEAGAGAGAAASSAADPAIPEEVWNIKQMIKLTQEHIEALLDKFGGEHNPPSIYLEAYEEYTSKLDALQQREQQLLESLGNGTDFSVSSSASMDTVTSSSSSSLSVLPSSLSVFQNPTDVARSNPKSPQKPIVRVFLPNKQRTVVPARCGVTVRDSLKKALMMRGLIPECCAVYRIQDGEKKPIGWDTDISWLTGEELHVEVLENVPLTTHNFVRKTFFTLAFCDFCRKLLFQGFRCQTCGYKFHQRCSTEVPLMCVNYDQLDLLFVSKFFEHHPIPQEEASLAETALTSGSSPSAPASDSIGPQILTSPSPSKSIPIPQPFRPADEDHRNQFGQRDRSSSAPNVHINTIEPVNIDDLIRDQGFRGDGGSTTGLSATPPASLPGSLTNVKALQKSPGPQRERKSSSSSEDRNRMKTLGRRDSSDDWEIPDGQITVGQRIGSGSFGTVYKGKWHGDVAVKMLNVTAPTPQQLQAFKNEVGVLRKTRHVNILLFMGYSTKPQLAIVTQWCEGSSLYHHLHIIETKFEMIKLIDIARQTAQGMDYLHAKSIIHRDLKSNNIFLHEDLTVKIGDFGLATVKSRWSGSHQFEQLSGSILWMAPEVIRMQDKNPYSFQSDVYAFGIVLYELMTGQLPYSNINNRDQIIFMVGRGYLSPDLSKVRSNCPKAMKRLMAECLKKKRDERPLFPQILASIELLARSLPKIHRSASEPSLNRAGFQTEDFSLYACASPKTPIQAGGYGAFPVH

`CCc1ccccc1C(=O)Nc1n[nH]c2c(C)c(F)c(C3C(C#N)=C(C)N(C)C(C)=C3C#N)cc12` [BAY-3827] was tested, and the % residual kinase activity [1] was 99%, the % residual kinase activity [2] was 94% and the % residual kinase activity (Homo sapiens) was 94%. For the same molecule, the % residual kinase activity [3] was 141%, the % residual kinase activity [4] was 90% and the % residual kinase activity [5] was 95%. It also gave a % residual kinase activity [6] of 109%, a % residual kinase activity [7] of 2% and a % residual kinase activity [8] of 95%. For the same molecule, the % residual kinase activity [9] was 86%, the % residual kinase activity [10] was 91% and the % residual kinase activity [11] was 100%. The “Cell Proliferation IC50” value (U2OS) was 18.7 µM and the “Cell Proliferation IC50” value (VCaP) was 1.71 µM.
